Reference: patent US8609836B2, “4-aryl-2-anilino-pyrimidines” (Janssen Pharmaceutica NV, priority 2008, dated 2013)

Experiments:
PLK2 (h) = PLK2 (h) (Homo sapiens, UniProt Q9NYY3); experiment: PLK2 human kinase inhibition, SPA; type: biochemical; details: read-out: PLK2 pIC50 (converted)
Method in brief: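 33P incorporation into a biotinylated peptide (2 μM) was captured on streptavidin PVT beads and imaged on Leadseeker. Enzyme at 30 μg/ml, ATP 0.1 μM with 2 nM [γ-33P]ATP, Hepes pH 8.0 with MnCl2 and DTT. Incubation was 20 min at room temperature.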

CDK4/CyclinD1 (h) = CDK4/CyclinD1 (h) (Homo sapiens, UniProt P11802); experiment: CDK4/CyclinD1 human kinase inhibition, SPA with GST-pRb substrate; type: biochemical; details: read-out: CDK4 pIC50 (converted)
Method in brief: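 Scintillation proximity format: after EDTA/Triton stop containing glutathione SPA beads, 33P incorporation was counted. The reaction ran 60 min at room temperature in Hepes pH 7.5 with NaF, MgCl2, DTT, using 2.5 μg/ml human CDK4/CyclinD1, 40 μg/ml GST-pRb substrate and 2 nM [γ-33P]ATP.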

H1299 = experiment: Cellular proliferation assay (Alamar blue), H1299; type: cell-based; details: Homo sapiens, NCI-H1299; 10% FCS; 72 hours with compound; Alamar blue 4 h
Method in brief: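 This proliferation assay on NCI-H1299 cells used an initial 24-hour compound-free incubation after seeding, followed by 72 hours of compound treatment with 10% FCS serum at 37° C. and 5% (v/v) CO2. Viable cells were quantified by a 4 h Alamar blue incubation and fluorescent plate reading at 544 nm/590 nm, and effects were expressed relative to control cells.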

PLK3 (h) = PLK3 (h) (Homo sapiens, UniProt Q9H4B4); experiment: PLK3 human kinase inhibition, SPA; type: biochemical; details: read-out: PLK3 pIC50 (converted)
Method in brief: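 Radiometric scintillation proximity format at pH 8.0 (Hepes, MnCl2, DTT). The 2 μM biotin-peptide substrate is phosphorylated by PLK3 (h) (30 μg/ml) using 0.1 μM ATP traced with 33P, for 20 min at room temperature. EDTA stop; phosphopeptide captured on streptavidin beads and imaged.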

MDA-MB-231 = experiment: Cellular proliferation assay (Alamar blue), MDA-MB-231; type: cell-based; details: Homo sapiens, 10% FCS, 72 hours with compound, Alamar blue 24 h, read-out: MDA/MB231 (cellular proliferation assay, Table 4) (converted)
Method in brief: (§1)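 Alamar blue conversion, quantified fluorimetrically (544 nm/590 nm), gave viable cell number relative to untreated controls; dye time 4 h for HCT-116, 6 h for U87-MG, 24 h for A2780 and MDA-MB-231. Compound exposure lasted 72 h, after 24 h pre-seeding, with 10% FCS, 37 °C, 5% CO2.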

PLK1 T210D (h) = PLK1 T210D (h) (Homo sapiens, UniProt P53350, T210D); experiment: PLK1 human kinase inhibition, SPA; type: biochemical; details: read-out: PLK1 pIC50 (converted)
Method in brief: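 Kinase incubated 40 min at room temperature with 0.1 μM ATP (2 nM [γ-33P]ATP tracer), 2 μM biotinylated peptide, pH 8.0 Hepes buffer with 2 mM MnCl2 and 1 mM DTT; enzyme at 0.125 ng/ml. Stopped with EDTA; 33P-peptide bound to streptavidin scintillant beads and imaged.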

HCT-116 = experiment: Cellular proliferation assay (Alamar blue), HCT-116; type: cell-based; details: Homo sapiens, 10% FCS, 72 hours with compound, Alamar blue 4 h
Method in brief: as §1

A2780 = experiment: Cellular proliferation assay (Alamar blue), A2780; type: cell-based; details: Homo sapiens, 10% FCS, 72 hours with compound, Alamar blue 24 h, read-out: A2780 (cellular proliferation assay, Table 4) (converted)
Method in brief: as §1

U87-MG = experiment: Cellular proliferation assay (Alamar blue), U87-MG; type: cell-based; details: Homo sapiens, U-87 MG; 10% FCS; 72 hours with compound; Alamar blue 6 h; read-out: U87-MG (cellular proliferation assay, Table 4) (converted)
Method in brief: as §1

GSK3β (h) = GSK3β (h) (Homo sapiens, UniProt P49841); experiment: GSK-3β human kinase inhibition, SPA; type: biochemical; details: read-out: GSK3b pIC50 (converted)
Method in brief: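 Radiometric: 33P-labelled peptide captured on streptavidin SPA beads after EDTA stop and imaged on Leadseeker. Reaction ran 1 h at RT, 1 μM cold ATP with 2 nM [γ-33P]ATP, 1 μM biotin-peptide substrate, human GSK3β 1 μg/ml, pH 7.4 Tris buffer.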

Sequence of PLK3 (h) (Q9H4B4 whole entry): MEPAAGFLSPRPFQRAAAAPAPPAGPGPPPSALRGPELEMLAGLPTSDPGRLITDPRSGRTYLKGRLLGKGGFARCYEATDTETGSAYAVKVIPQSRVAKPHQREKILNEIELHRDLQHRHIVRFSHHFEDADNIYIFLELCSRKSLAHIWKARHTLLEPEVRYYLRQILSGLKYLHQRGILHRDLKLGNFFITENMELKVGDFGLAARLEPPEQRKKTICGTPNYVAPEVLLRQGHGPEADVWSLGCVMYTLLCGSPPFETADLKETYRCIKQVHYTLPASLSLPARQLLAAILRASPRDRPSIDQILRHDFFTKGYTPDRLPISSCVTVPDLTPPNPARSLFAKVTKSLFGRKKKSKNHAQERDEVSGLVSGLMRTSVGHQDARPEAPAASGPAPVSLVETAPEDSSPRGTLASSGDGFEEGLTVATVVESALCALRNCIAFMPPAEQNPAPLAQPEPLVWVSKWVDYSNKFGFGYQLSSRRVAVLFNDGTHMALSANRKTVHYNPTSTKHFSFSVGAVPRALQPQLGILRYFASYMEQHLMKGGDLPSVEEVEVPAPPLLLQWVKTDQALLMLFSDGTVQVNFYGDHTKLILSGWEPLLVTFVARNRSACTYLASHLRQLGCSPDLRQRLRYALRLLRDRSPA
Sequence of GSK3β (h) (P49841 whole entry): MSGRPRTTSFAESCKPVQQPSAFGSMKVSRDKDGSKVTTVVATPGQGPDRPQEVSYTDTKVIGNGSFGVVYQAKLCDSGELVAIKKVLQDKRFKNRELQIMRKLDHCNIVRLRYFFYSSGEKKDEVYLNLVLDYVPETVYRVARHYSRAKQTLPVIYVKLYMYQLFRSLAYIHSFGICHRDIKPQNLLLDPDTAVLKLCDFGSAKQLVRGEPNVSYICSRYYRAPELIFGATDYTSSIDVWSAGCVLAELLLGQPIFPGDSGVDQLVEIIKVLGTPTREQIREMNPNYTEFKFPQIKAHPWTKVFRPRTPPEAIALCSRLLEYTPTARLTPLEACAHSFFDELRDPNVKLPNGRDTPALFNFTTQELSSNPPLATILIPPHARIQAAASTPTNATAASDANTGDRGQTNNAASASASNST
Sequence of PLK2 (h) (Q9NYY3 whole entry): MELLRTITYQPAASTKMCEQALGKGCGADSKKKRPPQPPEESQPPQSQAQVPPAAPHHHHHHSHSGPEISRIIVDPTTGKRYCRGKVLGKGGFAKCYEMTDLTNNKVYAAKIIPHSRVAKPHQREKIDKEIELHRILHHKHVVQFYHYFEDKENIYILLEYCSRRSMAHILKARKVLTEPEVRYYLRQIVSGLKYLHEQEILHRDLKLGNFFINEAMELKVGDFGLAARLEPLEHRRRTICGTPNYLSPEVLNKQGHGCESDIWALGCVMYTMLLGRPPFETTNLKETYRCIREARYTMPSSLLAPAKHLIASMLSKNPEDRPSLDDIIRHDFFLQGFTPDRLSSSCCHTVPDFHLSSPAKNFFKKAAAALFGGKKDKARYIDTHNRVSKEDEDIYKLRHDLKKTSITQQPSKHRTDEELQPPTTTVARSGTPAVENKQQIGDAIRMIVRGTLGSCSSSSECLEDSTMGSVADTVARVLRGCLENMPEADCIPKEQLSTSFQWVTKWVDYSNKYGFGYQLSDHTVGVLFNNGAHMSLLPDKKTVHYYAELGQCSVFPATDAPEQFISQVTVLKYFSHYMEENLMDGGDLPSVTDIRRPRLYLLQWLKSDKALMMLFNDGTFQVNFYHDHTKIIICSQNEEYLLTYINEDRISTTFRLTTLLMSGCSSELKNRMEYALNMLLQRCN
Sequence of PLK1 T210D (h) (P53350 whole entry T210D): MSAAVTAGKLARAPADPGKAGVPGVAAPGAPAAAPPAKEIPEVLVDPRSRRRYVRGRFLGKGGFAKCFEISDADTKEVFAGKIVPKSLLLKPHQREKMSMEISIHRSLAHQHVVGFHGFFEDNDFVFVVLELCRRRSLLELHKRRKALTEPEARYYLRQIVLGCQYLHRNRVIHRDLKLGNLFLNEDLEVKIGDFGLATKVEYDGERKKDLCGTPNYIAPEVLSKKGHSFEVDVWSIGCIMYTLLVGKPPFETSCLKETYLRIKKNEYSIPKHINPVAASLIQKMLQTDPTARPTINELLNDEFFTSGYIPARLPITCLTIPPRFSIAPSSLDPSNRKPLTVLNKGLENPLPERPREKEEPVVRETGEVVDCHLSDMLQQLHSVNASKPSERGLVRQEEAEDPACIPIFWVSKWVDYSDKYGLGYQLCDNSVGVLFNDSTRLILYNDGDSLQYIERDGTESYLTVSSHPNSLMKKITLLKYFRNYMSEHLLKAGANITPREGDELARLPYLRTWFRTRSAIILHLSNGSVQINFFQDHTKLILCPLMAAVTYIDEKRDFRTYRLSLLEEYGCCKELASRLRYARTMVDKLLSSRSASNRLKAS
Sequence of CDK4/CyclinD1 (h) (P11802 whole entry): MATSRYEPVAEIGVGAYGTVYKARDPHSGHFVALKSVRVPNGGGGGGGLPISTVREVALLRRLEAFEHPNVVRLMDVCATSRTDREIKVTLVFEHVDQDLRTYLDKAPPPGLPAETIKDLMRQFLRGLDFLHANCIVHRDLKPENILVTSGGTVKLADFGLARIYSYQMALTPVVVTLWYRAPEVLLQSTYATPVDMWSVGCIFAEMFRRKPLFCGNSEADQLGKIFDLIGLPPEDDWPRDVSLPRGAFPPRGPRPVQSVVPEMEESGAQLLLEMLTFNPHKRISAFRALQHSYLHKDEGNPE
Sequence of CDK4/CyclinD1 (h) (P24385 whole entry partner): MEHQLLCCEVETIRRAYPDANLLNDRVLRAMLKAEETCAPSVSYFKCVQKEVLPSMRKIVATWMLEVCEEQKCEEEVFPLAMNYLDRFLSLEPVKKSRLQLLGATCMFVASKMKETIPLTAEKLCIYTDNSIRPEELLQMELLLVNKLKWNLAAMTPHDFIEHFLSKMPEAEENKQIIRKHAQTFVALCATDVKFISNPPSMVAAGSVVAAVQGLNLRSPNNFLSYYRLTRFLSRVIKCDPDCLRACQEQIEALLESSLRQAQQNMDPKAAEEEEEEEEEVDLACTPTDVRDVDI

Row | IC50 (PLK2 (h)) [µM] | IC50 (CDK4/CyclinD1 (h)) [µM] | IC50 (H1299) [µM] | IC50 (PLK3 (h)) [µM] | IC50 (MDA-MB-231) [µM] | IC50 (PLK1 T210D (h)) [µM] | IC50 (HCT-116) [µM] | IC50 (A2780) [µM] | IC50 (U87-MG) [µM] | IC50 (GSK3β (h)) [µM] | SMILES
1 | > 10 | 8.13 | 1.15 | > 10 | 6.61 | > 10 | 1.29 | 6.46 | 3.09 | 0.24 | O=C1CN2CCN(CC2)Cc2cc(ccc2N2CCOCC2)Nc2nccc(n2)-c2cccc(c2)OCCN1 [Compound 102]
2 | > 3.02 | > 10 | > 10 | > 10 | > 10 | > 10 | > 10 | > 10 | > 10 | > 10 | COc1ccc2cc1CN(C)CCNC(=O)[C@H](CO)NCc1cc(cc(N3CCOCC3)c1)Nc1nccc-2n1 [Compound 105]
3 | > 10 | > 10 | > 10 | > 10 | > 10 | > 10 | 4.37 | > 10 | 8.91 | 6.31 | COc1cc2cc(c1)Nc1nccc(n1)-c1ccc(OC)c(c1)CN(C)CCNC(=O)[C@H](CO)NC2 [Compound 107]
4 | > 3.02 | > 10 | > 10 | > 10 | > 10 | > 10 | > 10 | > 10 | > 10 | > 10 | COc1ccc2cc1CN(C)CCCNC(=O)[C@H](CO)NCc1cccc(c1)Nc1nccc-2n1 [Compound 118]
5 | > 10 | > 10 | > 10 | > 10 | > 10 | > 10 | 2.29 | > 10 | 8.71 | 6.03 | COc1ccc2cc1CN(C)CCNC(=O)[C@H](CO)NCc1cc(Br)cc(c1)Nc1nccc-2n1 [Compound 119]
6 | > 10 | 1.7 | > 10 | > 10 | > 10 | > 10 | 2.88 | > 10 | 6.03 | 0.457 | O=C1NCc2cccc(c2)-c2ccnc(n2)Nc2cccc(c2)CN2CCC1CC2 [Compound 124]
7 | > 10 | > 10 | > 10 | > 10 | > 10 | > 10 | 5.25 | > 10 | > 10 | 4.37 | CC(C)Nc1cc2cc(c1)Nc1nccc(n1)-c1ccc(cc1)CN(C)CCCNC(=O)CN1CCN(CC1)C2 [Compound 131]
8 | > 3.02 | > 10 | > 10 | > 10 | > 10 | > 10 | 5.89 | > 10 | 8.71 | 2 | COc1cc2cc(c1)Nc1nccc(n1)-c1ccc(cc1)CN(C)CCNC(=O)CN1CCN(CC1)C2 [Compound 132]
9 | 2.88 | > 10 | > 10 | > 10 | > 10 | > 10 | 5.25 | > 10 | > 10 | 1.32 | CN1CCNC(=O)CN2CCN(CC2)Cc2cccc(c2)Nc2nccc(n2)-c2ccc(cc2)C1 [Compound 134]
10 | > 10 | 0.0724 | 0.832 | > 10 | 0.501 | > 10 | 0.117 | 0.245 | 0.251 | 0.117 | O=C1NCc2cc(ccc2N2CCOCC2)Nc2nccc(n2)-c2cccc(c2)CCCN2CCC[C@@H]12 [Compound 149]
11 | > 10 | > 10 | > 10 | > 10 | > 10 | > 10 | > 10 | > 10 | > 10 | 5.13 | COc1ccc2cc1CN(C)CCNC(=O)[C@@H]1CCCN1Cc1cc(cc(N3CCOCC3)c1)Nc1nccc-2n1 [Compound 152]

More lines, now with the values behind:

Row | SMILES | IC50 (PLK2 (h)) [µM] | IC50 (CDK4/CyclinD1 (h)) [µM] | IC50 (H1299) [µM] | IC50 (PLK3 (h)) [µM] | IC50 (MDA-MB-231) [µM] | IC50 (PLK1 T210D (h)) [µM] | IC50 (HCT-116) [µM] | IC50 (A2780) [µM] | IC50 (U87-MG) [µM] | IC50 (GSK3β (h)) [µM]
12 | COc1cc2cc(c1)Nc1nccc(n1)-c1ccc(cc1)CN(C)CCNC(=O)[C@H](CO)NC2 [Compound 109] | > 10 | > 10 | > 10 | > 10 | > 10 | > 10 | 2.69 | > 10 | 5.62 | 4.79
13 | CN1CCNC(=O)[C@H](CO)NCc2cccc(c2)Nc2nccc(n2)-c2ccc(cc2)C1 [Compound 114] | ~3.02 | > 10 | > 10 | > 10 | > 10 | > 10 | > 10 | > 10 | > 10 | 2.82
14 | COc1cc2cc(c1)Nc1nccc(n1)-c1ccc(OC)c(c1)CN(C)CCNC(=O)CN1CCN(CC1)C2 [Compound 127] | > 10 | > 10 | > 10 | > 10 | > 10 | > 10 | 6.46 | > 10 | > 10 | 5.01
15 | COc1ccc2cc1CN(C)CCNC(=O)CN1CCN(CC1)Cc1cc(NCCc3ccccc3)cc(c1)Nc1nccc-2n1 [Compound 138] | > 3.02 | > 10 | 10 | > 10 | 5.89 | > 10 | 3.09 | 5.5 | 3.24 | > 10
16 | COc1cc2cc(c1)Nc1nccc(n1)-c1ccc(OC)c(c1)CN(C)CCCNC(=O)CN1CCN(CC1)C2 [Compound 140] | > 10 | > 10 | > 10 | > 10 | > 10 | > 10 | 1.55 | > 10 | 4.07 | 7.41
17 | CC(C)Nc1cc2cc(c1)Nc1nccc(n1)-c1ccc(cc1)CN(C)CCCNC(=O)[C@@H]1CCCN1C2 [Compound 151] | > 3.02 | > 10 | > 10 | > 10 | > 10 | > 10 | 3.55 | > 10 | 7.59 | > 10
18 | CN1CCNC(=O)[C@@H]2CCCN2Cc2cc(cc(N3CCOCC3)c2)Nc2nccc(n2)-c2ccc(cc2)C1 [Compound 154] | > 3.02 | > 10 | > 10 | > 10 | > 10 | > 10 | > 10 | > 10 | > 10 | > 10
19 | COc1cc2cc(c1)Nc1nccc(n1)-c1ccc(cc1)CN(C)CCCNC(=O)[C@@H]1CCCN1C2 [Compound 156] | > 3.02 | > 10 | > 10 | 8.51 | > 10 | > 10 | > 10 | > 10 | > 10 | > 10
20 | O=C1NCCNCc2ccc(cc2)-c2ccnc(n2)Nc2ccc(N3CCOCC3)c(c2)CN2CCC[C@@H]12 [Compound 157] | > 10 | > 10 | 5.13 | 9.55 | > 10 | > 10 | 6.46 | 6.46 | > 10 | 6.61
